In US20030139391A1 (priority 2000, published 2003):
Marks after values point to notes of the source that are not given here.

How the values were obtained:
[1] = tested on: Patients diagnosed with Alzheimer's Disease; assay: ADCS/ADL scale in 5-month slow-titration trial; format: in vivo, human
Description: Subjects in the Placebo group received 21 weeks (5 months) of placebo medication.
The ADCS/ADL scale is a 23-item informant-based assessment scale measuring widely applicable daily activities appropriate for patients in the mild to moderate category of Alzheimer's Disease. The 23 items were selected for measurement from the larger set of 45 items studied by Galasko et al (Alzheimer Disease and Associated Disorders, Vol 11, Suppl. 2, 1997). These individual items were scored from 0-3 to […], depending on the question, with a possible total score of 78. A higher score indicated a higher functioning patient.
An additional secondary indication captures overall changes in Activities of daily Living (ADL) performances as measured by the Alzheimer's Disease Cooperative Study Activities of Daily Living (ACDS/ADL) scale. As mentioned above this scale is comprised of 23 items that have been tested and validated in patients with mild to moderately severe Alzheimer's disease.

[2] = in humans; cited from earlier work

## COc1ccc2c3c1O[C@H]1C[C@@H](O)C=C[C@@]31CCN(C)C2 [GAL, galantamine]
[1]; LOCF, 8 mg/day
  Change in Total ADL score from baseline at Month 5, Mean (SE): −3.2 (0.79)
[1]; LOCF, 24 mg/day
  Change in Total ADL score from baseline at Month 5, Mean (SE): −1.5 (0.56)**
[1]; observed case, 8 mg/day
  Change in Total ADL score from baseline at Month 5, Mean (SE): −3.1 (0.91)
[1]; observed case, 16 mg/day
  Change in Total ADL score from baseline at Month 5, Mean (SE): −0.5 (0.55)***^†
[1]; observed case, 24 mg/day
  Change in Total ADL score from baseline at Month 5, Mean (SE): −1.6 (0.61)**
[2]
  passing the blood-brain barrier: capable of passing the blood-brain barrier
